Experimental data taken from patent US20250269046A1, “CELLULAR UPTAKE OF LARGE BIOMOLECULES ENABLED BY CELL-SURFACE-REACTIVE CELL-PENETRATING PEPTIDE ADDITIVES” (FORSCHUNGSVERBUND BERLIN E.V., priority 2021, published 2025).
AEEA = NCCOCCOCC(=O)O

Key:
Format in all cases: cell-based
[1] = system: HeLa Kyoto cells transfected with EGFP-transmembrane-Halotag plasmid; assay: Halotag-tethering of CPP and delivery of NLS-mCherry-cR10 I; conditions: 5 μM NLS-mCherry-cR10 I, 20 μM Halo-R10, 1 hour 37° C.
Procedure: The arrowheads indicate nucleation zones stained by both peptides. b, Time-lapse of the co-delivery of NLS-mCherry-R10 II together with the Maleimide-R10-Cy5 peptide 13 on HeLa Kyoto cells in cell medium. The arrowheads indicate nucleation zones and blue arrowheads the appearance of nucleolar staining of the mCherry. c, Cellular uptake of NLS-mCherry-cR10 I in presence of chloroalkane-modified “Halo-R10” 17 on HeLa Kyoto cells transfected with EGFP-transmembrane-Halotag plasmid, 1 hour at 37° C. in cell medium. SP: Signal peptide, TM: transmembrane sequence. […] Uptake experiments with peptides 16 and 18-20 in FIG. 26. Scale bars 20 μm.
Transfected cells were treated with 1 μM JF646-Halotag-Iigand (Promega). […] The arrowheads show nucleoli with mCherry fluorescence. See also main text FIG. 3. Scale bars 20 μm.
To elaborate this further, the inventors generated a plasmid that would lead to expression of an EGFP reporter inside transfected cells along with a Halotag (England, C. G., Luo, H. & Cai, W. HaloTag technology: a versatile platform for biomedical applications. Bioconjug Chem 26, 975-986, doi:10.1021/acs.bioconjchem.5b00191 (2015)) on the cell surface (simplified plasmid map in FIG. 3c, validation of the plasmid and additional controls in FIG. 28). […]

HeLa CLL-2 cells = assay: WST-1 cell viability assay; conditions: 10 μM
Procedure: Absorbance at 440 nm is indicative of cellular metabolic activity in the processing of WST-1 to the absorbing Formazan. […] The cells were treated with either 5 μM NLS-mCherry-R10 II in DMEM alone (lower panel) or with 10 μM TNB-R10 5 in DMEM (upper panel). After one-hour incubation, cells were washed again in DMEM and treated with 5 μM Calcein AM in DMEM. The morphology of the cells as shown in the differential interference contrast (DIC) images is also unaffected. Scale bars 50 μm. c, Co-delivery of NLS-mCherry-R10 II in presence of Sytox Blue dead cell stain with or without added TNB-R10 5. Scale bars 20 μm.

cells [2] = assay: Cellular uptake of mCherry variants (K10, exR10, R5, R8) with or without TNB-R10 5
Description: Most of our findings point to an energy-independent mode of uptake, but to probe whether TNB-R10 5 can also lead to endosomal leakage of an entrapped cargo, the inventors used peptide 5 on cells in combination with an mCherry variant (NLS-mCherry-K10 Ilil) that had been modified with a K10 peptide (via maleimide chemistry, see FIG. 8).
The inventors also tested if recombinantly expressed CPP-fusion proteins can be delivered, as these require much less equipment and effort to produce.
In the same vein, the inventors also made mCherry variants modified with R5 and R8 peptides and co-delivered them into cells with TNB-R10 5 (FIGS. 36-37).

HeLa Kyoto cells [3] = assay: Cellular uptake of CPP-bearing cargoes with or without unbound CPP additive, confocal microscopy
Description: To evaluate the concentration, temperature and cargo-size dependency of added arginine-rich peptides to mediate cytosolic delivery, the inventors chose three distinct cargoes to transport: the organic fluorophore Tetramethylrhodamine (TAMRA, ˜450 Da), the camelid-derived anti-GFP nanobody GBP1 (˜14 kDa) and the fluorescent protein mCherry with a nuclear localization signal (NLS-mCherry, ˜28 kDa). […] We then applied all of the synthesized cargoes to HeLa Kyoto cells (expressing nuclear GFP-PCNA (Leonhardt, H. et al. Dynamics of DNA replication factories in living cells. J Cell Biol 149, 271-280, doi:10.1083/jcb.149.2.271 (2000). Chagin, V. O. et al. 4D Visualization of replication foci in mammalian cells corresponding to individual replicons. Nat Commun 7, 11231, doi:10.1038/ncomms11231 (2016)) as antigen for the nanobody), at both 37 and 4° C.
For microscopy experiments, 20′000 cells (10′000 in the case of the GFP-PCNA HeLa Kyoto cell line^7) were seeded into the wells of a 96-well glass bottom plate. The cells were left to adhere and grow for 24 hours at 37° C. with 5% CO2. For 37° C. experiments, the cells were washed once with DMEM before addition of the protein samples in DMEM. The cells were incubated for 1 hour at 37° C. The cells were then washed three times with DMEM with 10% fetal bovine serum (FBS). Cells were generally imaged live with incubation at 37° C. and 5% CO2. For the quantitative microscopy experiments, the cells were fixed using 4% PFA in PBS for 30 minutes at room temperature after washing.
For 4° C. experiments, the cells were pre-chilled at 4° C. for 1 hour. The cells were then washed with cold DMEM and the proteins were added in cold DMEM to the cells. The cells were incubated at 4° C. for 1 hour. Afterwards, the cells were washed thrice with cold DMEM with 10% FBS, before fixation with 4% PFA in PBS for 30 minutes at room temperature.
Confocal microscopy images were acquired on a Nikon-CSU spinning disc microscope with an CSU—X1 (Andor) and a live cell incubation chamber (OKOlab).

cells [4] = assay: Uptake of NLS-mCherry-R10 and Alexa647-Transferrin with endocytosis inhibitors; conditions: NLS-mCherry-R10 II 5 μM, additive 5 μM, 37° C.; sodium azide, dynasore, pitstop 2
HeLa Kyoto cells [5] = assay: Quantitative microscopy of nuclear mCherry fluorescence after co-delivery with R10-peptides; conditions: 5 μM mCherry-R10 conjugate II with additive
Procedure: To further evaluate the high efficiency of the CPP-peptide additives 1 and 2 in the additive protocol and to probe the impact of the N-terminal thiol functionality, the inventors synthesized additional linear CPPs 3-5 with different thiol derivatives (FIG. 2a). We then co-delivered 5 μM of CPP-conjugates of mCherry either linked to a linear (11) or cyclic R10 (1) (as above in FIG. 1 d-e) together with the newly synthesized peptides 1-5 into HeLa Kyoto cells and used microscopy to measure both nuclear and total fluorescence (representative pictures for all tested conditions in FIG. 12). Thereby, the inventors quantified the desirable delivery to the nucleus and nucleoli (FIG. 2a), and also the amount of unwanted endosomal entrapment (FIG. 13, see example 6 with supporting methods and general methods for details).
Cell culturing is described in the supplementary methods, along with a list of cell lines used in this study. For microscopy experiments, 20′000 cells (10′000 in the case of the GFP-PCNA HeLa Kyoto cell line^7) were seeded into the wells of a 96-well glass bottom plate. The cells were left to adhere and grow for 24 hours at 37° C. with 5% CO2. For 37° C. experiments, the cells were washed once with DMEM before addition of the protein samples in DMEM. The cells were incubated for 1 hour at 37° C. The cells were then washed three times with DMEM with 10% fetal bovine serum (FBS). […] For the quantitative microscopy experiments, the cells were fixed using 4% PFA in PBS for 30 minutes at room temperature after washing.
Quantification of cellular uptake was done using a script for FIJI, see section “Quantification Script”. […] The red fluorescence channel was background subtracted and the red fluorescence within the nuclear mask and outside of it was quantified. Nuclear fluorescence was either normalized to the nuclear area (absolute fluorescence graph in FIG. 2) or to the sum of nuclear and outside fluorescence (relative fluorescence graph in SI FIG. 6). Pearson's correlation coefficient was calculated using the Coloc2 tool in Fiji.

cells [6] = assay: Uptake of NLS-mCherry-R10 II with additional CPP in presence of serum; conditions: for co-delivery efficiency in presence of serum: 37° C.
Procedure: Scale bars 20 μm. b, Quantification of relative nuclear fluorescence intensities from microscopy pictures. n.s.=not significant, ***=P<0.0005.
Methods of cargo delivery that rely on endosomal escape are often susceptible to the presence of serum, as they require effective endocytosis of both the cargo and the endosomolytic agent (Erazo-Oliveras, A. et al. Protein delivery into live cells by incubation with an endosomolytic agent. Nat Methods 11, 861-867, doi:10.1038/nmeth.2998 (2014)). The inventors hypothesized that peptide 5 would likely react with thiols in the serum, but the co-delivery with 2 (Cys-R10) should still function. […] Reduction in efficiency in presence of large amounts of serum may be due to the thiols in serum or the unspecific binding of CPPs to serum proteins (Lattig-Tunnemann, G. et al. Backbone rigidity and static presentation of guanidinium groups increases cellular uptake of arginine-rich cell-penetrating peptides. Nat Commun 2, 453, doi:10.1038/ncomms1459 (2011)).

HeLa CCL-2 cells = assay: Cre Stoplight 2.4 reporter, delivery of Cre-exR8, flow cytometry and microscopy
Description: To challenge the delivery protocol, the inventors expressed and purified Cre recombinase fused to a C-terminal R8 peptide (Cre-exR8, characterization in FIG. 39). Fusions of Cre recombinase with the arginine-rich HIV TAT peptide have been previously reported to aid in cell uptake (Peitz, M., Pfannkuche, K., Rajewsky, K. & Edenhofer, F. Ability of the hydrophobic FGF and basic TAT peptides to promote cellular uptake of recombinant Cre recombinase: a tool for efficient genetic engineering of mammalian genomes. Proc Natl Acad Sci USA 99, 4489-4494, doi:10.1073/pnas.032068699 (2002)).
For the Cre recombinase experiments, 200′000 cells were seeded in each well of a 12-well plate. The cells were incubated for 24 hours at 37° C. to settle, then transfected with the reporter plasmid (Cre Stoplight 2.4) using Lipofectamine 2000. The cells were incubated for another 24 hours, then treated with Cre recombinase (or medium) in DMEM with 5% FCS and incubated for 24 more hours. Microscopy pictures were then taken, and the cells were detached with accutase, dead cells stained with DAPI and all cells measured on a LSRFortessa (BD Biosciences, USA) flow cytometer. […] At least 10′000 cells were counted for each condition. The gating strategy is illustrated in FIG. 41.

[7] = system: accessible cell-surface thiols; assay: Fluorescent labelling of accessible cell-surface thiols; conditions: 50 μM for 10 minutes, then 10 μM atto 488 maleimide
Description: Next, the inventors wanted to explore other cysteine-selective reactions in this context. […] The inventors first wanted to confirm that there are addressable, surface-exposed thiols on cells. To that end, the inventors labelled cells with a cell-impermeable, maleimide-functionalized fluorophore (FIG. 20).

For “6-chlorohexanoic acid-PEG*-RRRRRRRRRR-Amide ({6‑chlorohexanoyl-AEEA-AEEA}-RRRRRRRRRR-NH2) [compound 17]”, the “nucleolar mCherry staining in transfected cells” value [1] was “mCherry in the nucleoli of EGFP-positive cells”.
With CN[C@@H]1C[C@H]2O[C@@](C)([C@@H]1OC)n1c3ccccc3c3c4c(c5c6ccccc6n2c5c31)C(=O)NC4 [staurosporine] the “effect on cellular metabolic activity (positive control)” value (HeLa CLL-2 cells) was “significant, detrimental effect”.
“NLS-mCherry-exR10 IV: recombinantly expressed mCherry with a C-terminal R10 peptide, SEQ ID NO: 3” was tested, and the “uptake of recombinant CPP-fusion protein” value (cells [2]; 5 μM alone) was “predominantly endosomal uptake” and the “uptake of recombinant CPP-fusion protein” value (cells [2]; 5 μM with addition of peptide 5) was “efficiently rescued”.
In the case of N=C(N)NCCC[C@H](NC(=O)[C@H](CCCNC(=N)N)NC(=O)[C@H](CCCNC(=N)N)NC(=O)[C@H](CCCNC(=N)N)NC(=O)[C@H](CCCNC(=N)N)NC(=O)[C@H](CCCNC(=N)N)NC(=O)[C@H](CCCNC(=N)N)NC(=O)[C@H](CCCNC(=N)N)NC(=O)[C@H](CCCNC(=N)N)NC(=O)[C@H](CCCNC(=N)N)NC(=O)COCCOCCNC(=O)COCCOCCNC(=O)[C@@H](N)CS)C(N)=O [peptide 2], the “cells with nucleolar red fluorescence” value (HeLa Kyoto cells [3]; 5 μM NLS-mCherry-R10 II with the CPP-additive) is reported as “more than 90%”, the “nucleolar delivery of NLS-mCherry linked to linear R10 with linear CPP-additive” value (HeLa Kyoto cells [3]; 5 μM additive, 5 μM NLS-mCherry-R10) is reported as “efficient nucleolar delivery” and the “nucleolar mCherry in presence of endocytosis inhibitors” value (cells [4]) is reported as “could detect nucleolar mCherry regardless of the inhibitor used”. For the same compound, the staining after co-delivery (HeLa Kyoto cells [5]) was “nuclear/nucleolar staining”, the “co-delivery efficiency in presence of serum” value (cells [6]; 5% serum or lower) was “negligible effect on uptake” and the “co-delivery efficiency in presence of serum” value (cells [6]; 10% serum) was “reduced efficiency”. The “performance in presence of serum compared with alkylated variant” value (cells [6]; NLS-mCherry-R10 II, serum) was “performed significantly better than the alkylated variant 3”, the “expression of the Cre reporter” value (HeLa CCL-2 cells; 1 μM Cre-exR8 with 10 μM peptide vs alone, 5% serum) was “strong increase in expression of the Cre reporter” and the “red fluorescence, epifluorescence microscopy” value (HeLa CCL-2 cells; Cre-exR8 in presence of additional peptide) was “higher incidence of red fluorescence”.
O=C(O)c1cc(SSc2ccc([N+](=O)[O-])c(C(=O)O)c2)ccc1[N+](=O)[O-] [Ellman's reagent, 5,5′-dithiobis-(2-nitrobenzoic acid)] was tested, and the “labelling of cell-surface thiols by maleimide fluorophore after pre-treatment” value [7] was “Labelling is dramatically reduced”.
